Test results as given in ChEMBL document CHEMBL1131713, “Substituted piperidines--highly potent renin inhibitors due to induced fit adaptation of the active site” (Bioorg Med Chem Lett, 1999).
Calls of active or inactive are those of the source. No cut-off for these calls is given here.

target: Human immunodeficiency virus type 1 protease (Human immunodeficiency virus 1) (UniProt Q72874); test: Inhibition against HIV protease; NA means no activity

Row | Activity | SMILES
1 | inactive | COc1ccc(COC2CNCCC2c2ccc(Cl)cc2)cc1 (racemic)

target: T1, Cathepsin D (Bos taurus) (UniProt P80209); test: Inhibition against bovine cathepsin D; NA means no activity
T1 sequence (whole entry): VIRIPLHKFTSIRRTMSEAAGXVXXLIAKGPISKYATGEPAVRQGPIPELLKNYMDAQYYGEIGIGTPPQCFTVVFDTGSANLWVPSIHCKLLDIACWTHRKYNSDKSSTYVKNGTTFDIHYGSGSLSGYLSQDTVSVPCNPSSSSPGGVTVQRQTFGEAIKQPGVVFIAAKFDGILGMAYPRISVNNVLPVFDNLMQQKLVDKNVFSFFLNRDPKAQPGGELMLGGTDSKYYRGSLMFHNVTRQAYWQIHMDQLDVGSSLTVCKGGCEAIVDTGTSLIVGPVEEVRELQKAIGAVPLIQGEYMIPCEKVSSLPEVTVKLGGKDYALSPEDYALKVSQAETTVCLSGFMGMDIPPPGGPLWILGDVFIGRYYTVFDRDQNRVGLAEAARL

Row | Activity | SMILES
2 | inactive | COc1ccc(COC2CNCCC2c2ccc(Cl)cc2)cc1 (racemic)

target: Pepsin A (Sus scrofa) (UniProt P00791); test: Inhibition against porcine pepsin; NA means no activity
Sequence (P00791 60-385 limits assumed): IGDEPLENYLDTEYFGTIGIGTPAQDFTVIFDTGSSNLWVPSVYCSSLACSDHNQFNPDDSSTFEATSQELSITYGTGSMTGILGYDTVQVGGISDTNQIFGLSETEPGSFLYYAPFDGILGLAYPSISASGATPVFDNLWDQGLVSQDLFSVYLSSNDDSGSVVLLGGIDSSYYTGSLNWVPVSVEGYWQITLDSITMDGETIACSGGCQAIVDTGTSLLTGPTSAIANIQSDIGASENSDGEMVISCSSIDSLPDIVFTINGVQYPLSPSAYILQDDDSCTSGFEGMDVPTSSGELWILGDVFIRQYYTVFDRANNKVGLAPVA

Row | Activity | SMILES
3 | inactive | COc1ccc(COC2CNCCC2c2ccc(Cl)cc2)cc1 (racemic)

target: T2, Renin (Homo sapiens, UniProt P00797); test: In vitro inhibitory activity against purified recombinant human renin
T2 sequence (P00797 whole entry): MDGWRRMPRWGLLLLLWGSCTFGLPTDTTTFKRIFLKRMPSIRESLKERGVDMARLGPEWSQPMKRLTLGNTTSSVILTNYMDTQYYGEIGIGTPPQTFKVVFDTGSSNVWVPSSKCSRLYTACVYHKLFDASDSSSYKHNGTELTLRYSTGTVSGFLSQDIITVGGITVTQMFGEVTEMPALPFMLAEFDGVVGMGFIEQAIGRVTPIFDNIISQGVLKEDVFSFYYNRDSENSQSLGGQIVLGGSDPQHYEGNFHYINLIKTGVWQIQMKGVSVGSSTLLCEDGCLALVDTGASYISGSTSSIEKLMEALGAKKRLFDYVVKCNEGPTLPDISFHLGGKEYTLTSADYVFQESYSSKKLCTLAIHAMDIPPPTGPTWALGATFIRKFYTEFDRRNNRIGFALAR

Row | IC50 [µM] | SMILES
4 | 0.16 | c1ccc(OCCOCc2ccc([C@H]3CCNC[C@@H]3OCc3ccc4ccccc4c3)cc2)cc1 (racemic)
5 | 0.74 | c1ccc(COCCCOCc2ccc([C@H]3CCNC[C@@H]3OCc3ccc4ccccc4c3)cc2)cc1 (racemic)
6 | 0.54 | c1ccc(OCCCOCc2ccc([C@H]3CCNC[C@@H]3OCc3ccc4ccccc4c3)cc2)cc1 (racemic)
7 | 0.091 | c1ccc(COCCOCc2ccc([C@H]3CCNC[C@@H]3OCc3ccc4ccccc4c3)cc2)cc1 (racemic)
8 | 0.22 | c1ccc(OCCCCOc2ccc([C@H]3CCNC[C@@H]3OCc3ccc4ccccc4c3)cc2)cc1 (racemic)
9 | 0.1 | c1ccc(COCCCCOc2ccc([C@H]3CCNC[C@@H]3OCc3ccc4ccccc4c3)cc2)cc1 (racemic)
10 | 0.008 | c1ccc(COCCCOc2ccc([C@H]3CCNC[C@@H]3OCc3ccc4ccccc4c3)cc2)cc1 (racemic)
11 | 0.053 | c1ccc(COCCOc2ccc([C@H]3CCNC[C@@H]3OCc3ccc4ccccc4c3)cc2)cc1 (racemic)

The next lines start with the molecule.

Row | SMILES | IC50 [µM]
12 | O=S(=O)(NCc1ccc([C@H]2CCNC[C@@H]2OCc2ccc3ccccc3c2)cc1)c1ccccc1 (racemic) | 40
13 | c1ccc(-c2noc(COc3ccc([C@H]4CCNC[C@@H]4OCc4ccc5ccccc5c4)cc3)n2)cc1 (racemic) | 0.041
14 | CC(C)(C)S(=O)(=O)C[C@@H](Cc1ccccc1)C(=O)N[C@@H](Cc1cnc[nH]1)C(=O)N[C@@H](CC1CCCCC1)[C@@H](O)[C@@H](O)C1CC1 [REMIKIREN] | 2.5e-05
15 | O=C(NCCOc1ccc([C@H]2CCNC[C@@H]2OCc2ccc3ccccc3c2)cc1)c1ccccc1 (racemic) | 2.6
16 | c1cncc(-c2noc(COc3ccc([C@H]4CCNC[C@@H]4OCc4ccc5ccccc5c4)cc3)n2)c1 (racemic) | 0.88
17 | O=C(OCc1ccc([C@H]2CCNC[C@@H]2OCc2ccc3ccccc3c2)cc1)c1ccccc1 (racemic) | 0.055
18 | COc1ccccc1COCCCOc1ccc([C@H]2CCNC[C@@H]2OCc2ccc3ccccc3c2)cc1 (racemic) | 0.0015
19 | c1ccc(COCCCOc2ccc([C@H]3CCNC[C@@H]3OCc3ccc4ccccc4c3)cc2)nc1 (racemic) | 0.21
20 | COc1ccc(COC2CNCCC2c2ccc(Cl)cc2)cc1 (racemic) | 50
21 | COc1ccccc1COCCCOc1ccc([C@H]2CCNC[C@@H]2OCc2cc(OC)c3ccccc3c2OC)cc1 (racemic) | 6e-05
22 | COc1cccc(C(=O)OCc2ccc([C@H]3CCNC[C@@H]3OCc3ccc4ccccc4c3)cc2)c1 (racemic) | 0.087
23 | COc1ccc(C(=O)NCc2ccc([C@H]3CCNC[C@@H]3OCc3ccc4ccccc4c3)cc2)cc1 (racemic) | > 1000
24 | COc1ccc(CO[C@@H]2CNCC[C@H]2c2ccc(Cl)cc2)cc1 | 1200
25 | c1ccc(CCOCCOc2ccc([C@H]3CCNC[C@@H]3OCc3ccc4ccccc4c3)cc2)cc1 (racemic) | 0.16
26 | O=C(CCCOc1ccc([C@H]2CCNC[C@@H]2OCc2ccc3ccccc3c2)cc1)c1ccccc1 (racemic) | 0.22
27 | O=C(OCCOc1ccc([C@H]2CCNC[C@@H]2OCc2ccc3ccccc3c2)cc1)c1ccccc1 (racemic) | 0.026
28 | O=C(OCCOc1ccc([C@H]2CCNC[C@@H]2OCc2ccc3ccccc3c2)cc1)c1cccnc1 (racemic) | 0.58
29 | COc1ccc(CO[C@H]2CNCC[C@@H]2c2ccc(Cl)cc2)cc1 | 26
